Laboratory results taken from patent publication US12398154B2, “Azaquinazoline pan-KRas inhibitors” (Mirati Therapeutics, Inc., priority 2020, dated 2025).

Columns and labels:
[1] = target: KRas G12V (Homo sapiens, UniProt P01116, G12V); test: biochemical;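 also: KRas binding measured by TR-FRET displacement at room temperature, IC50 fitted from percent of control values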
Description: (§2) The ability of a compound to bind to KRas was measured using a TR-FRET displacement assay. […] After a 60-minute incubation at room temperature, the reaction was measured using a BMG LABTECH CLARIO star Plus via TR-FRET. […] The POC values were fit to a 4-parameter IC50 equation and the IC50 value reported.

[2] = target: KRas G12R (Homo sapiens, UniProt P01116, G12R); test: biochemical;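 also: TR-FRET displacement assay of compound binding to KRas, read after one hour at room temperature, potency from a four-parameter fit of percent-of-control values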
Chain of KRas G12R (P01116 1-169 isoform P01116-2 G12R): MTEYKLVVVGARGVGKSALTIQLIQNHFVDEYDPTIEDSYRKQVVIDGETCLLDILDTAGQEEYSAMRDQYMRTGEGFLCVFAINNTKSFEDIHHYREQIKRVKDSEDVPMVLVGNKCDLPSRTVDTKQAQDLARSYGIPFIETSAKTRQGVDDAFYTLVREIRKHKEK
Description: as §2

[3] = tested on: pERK in PSN1 cells; test: Inhibition of KRas phosphorylation of ERK (Cisbio HTRF pERK assay); conditions: Homo sapiens, PSN1, 3 h, read-out: Inhibition (HTRF IC50) of KRas-mediated Phosphorylation of ERK, PSN1
[4] = tested on: pERK in H460 cells; test: as above; conditions: Homo sapiens, NCI-H460, read-out: Inhibition (HTRF IC50) of KRas-mediated Phosphorylation of ERK, H460
[5] = tested on: pERK in MKN1 cells; test: as above; conditions: Homo sapiens, MKN-1, 3 h, read-out: Inhibition (HTRF IC50) of KRas-mediated Phosphorylation of ERK, MKN1
[6] = tested on: pERK in H727 cells; test: as above; conditions: Homo sapiens, NCI-H727, read-out: Inhibition (HTRF IC50) of KRas-mediated Phosphorylation of ERK, H727
Description: To harvest cells from flask using 0.05% Trypsin/EDTA solution. Add 10 mL of media to stop trypsinizing. Pipette the cells into a conical bottom 50 mL centrifuge tube and centrifuge 5 min×1000 rpm. • 2. Re-suspend the cell pellet in media, take a cell count, and then adjust the cell density using fresh media. • 3. Seed 6,000 cells into cell culture plate with 50 μL media. […] Incubate cell plate overnight in a 37° C., 5% CO2 incubator. • Compound titrations • 1. Use Tecan to complete the compound addition. Compounds start from 10 uM top, 3-fold dilution, and 10 doses. The final DMSO concentration is 0.8%. Dispensed 0.2 uM Trametinib as Min control. • 2. Incubate cell plate for 3 hrs in the incubator. • Detection with cisbio pERK HTRF kit • 1. […] At the end of the compound treatment, flick-off the media. • 3. Add 35 μL of lysis buffer per well using a Multidrop Combi. Then place on a plate agitator shaking at 300 rpm at 4° C. for 40 mins. • 4. Make up the HTRF antibody buffer. For each assay plate, mix 50 μL of d2-conjugate antibody with 950 μL of detection buffer. Similarly, mix 50 μL of Cryptate antibody with 950 μL of detection buffer. Then mix the two diluted antibodies together. • 5. Dispense 3.4 μL the antibody buffer to wells of an empty assay plate. Seal the plate and centrifuge plate 30 sec×1000 rpm. • 6. At the end of the 4° C. lysis, centrifuge the lysate plates 3 mins×1500 rpm. • 7. Use the Bravo to transfer 13.6 μL of lysate from cell culture plate to assay plate.
Then incubate assay plate for 2 hrs at room temperature. […] At the end of incubation, read plate on the Envision after centrifuging plate 30 sec× • 1000 rpm.

[7] = tested on: pERK in HCT116 cells; test: as above; conditions: Homo sapiens, HCT-116, read-out: Inhibition (HTRF IC50) of KRas-mediated Phosphorylation of ERK, HCT116
[8] = tested on: pERK in ASPC1 cells; test: as above; conditions: Homo sapiens, ASPC1, read-out: Inhibition (HTRF IC50) of KRas-mediated Phosphorylation of ERK, AsPC-1
[9] = target: KRas G12D (Homo sapiens, UniProt P01116, G12D); test: biochemical;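 also: TR-FRET displacement binding assay on KRas, read after a one-hour incubation at room temperature, IC50 fitted from percent-of-control values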
Chain of KRas G12D (P01116 1-169 isoform P01116-2 G12D): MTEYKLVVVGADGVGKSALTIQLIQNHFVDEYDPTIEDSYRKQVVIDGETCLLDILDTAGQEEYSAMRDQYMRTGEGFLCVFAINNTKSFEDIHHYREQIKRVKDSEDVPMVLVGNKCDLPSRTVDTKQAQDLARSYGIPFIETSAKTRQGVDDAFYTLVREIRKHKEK
Description: as §2

[10] = tested on: pERK in H358 cells; test: Inhibition of KRas phosphorylation of ERK (Cisbio HTRF pERK assay); conditions: Homo sapiens, NCI-H358, read-out: Inhibition (HTRF IC50) of KRas-mediated Phosphorylation of ERK, H358
[11] = tested on: pERK in A549 cells; test: as above; conditions: Homo sapiens, A549, read-out: Inhibition (HTRF IC50) of KRas-mediated Phosphorylation of ERK, A549
[12] = tested on: phospho-ERK in NCI-H727 (G12V) cells; test: Inhibition of KRas-mediated phosphorylation of ERK (in-cell western); type: cell-based; conditions: Homo sapiens, NCI-H727, 3 h, 3 hours compound, phospho-ERK normalized to GAPDH
Outline: (§1)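 IC50 came from 4-parameter dose-response fits of phospho-ERK (Thr202/Tyr204)/GAPDH signal, expressed as % DMSO control. Compounds were applied for 3 h at 0.5% DMSO before fixation, methanol permeabilization and antibody imaging by in-cell western.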

[13] = tested on: phospho-ERK in NCI-H460 (Q61H) cells; test: as above; type: cell-based; conditions: Homo sapiens, NCI-H460, 3 h, 3 hours compound, phospho-ERK normalized to GAPDH
Outline: as §1

[14] = tested on: phospho-ERK in AsPC-1 (G12D) cells; test: as above; type: cell-based; conditions: Homo sapiens, ASPC1, 3 h, 3 hours compound, phospho-ERK normalized to GAPDH
Outline: as §1

Chain of KRas G12V (P01116 1-169 isoform P01116-2 G12V): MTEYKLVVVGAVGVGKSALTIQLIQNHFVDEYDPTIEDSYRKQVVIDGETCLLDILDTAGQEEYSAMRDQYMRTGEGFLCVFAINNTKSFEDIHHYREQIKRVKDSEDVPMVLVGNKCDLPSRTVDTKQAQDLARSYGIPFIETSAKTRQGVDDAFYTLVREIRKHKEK

SMILES	IC50 [1]	IC50 [2]	IC50 [3]	IC50 [4]	IC50 [5]	IC50 [6]	IC50 [7]	IC50 [8]	IC50 [9]	IC50 [10]	IC50 [11]	IC50 [12]	IC50 [13]	IC50 [14]
CCc1c(F)ccc2cc(O)cc(-c3ncc4c(N5C[C@@H]6C[C@H](C5)[C@H](O)C6)nc(OCC5(CN(C)C)CC5)nc4c3F)c12 [Example 360, (1R,5R,6R)-3-(2-((1-((dimethylamino)methyl)cyclopropyl)methoxy)-7-(8-ethyl-7-fluoro-3-hydroxynaphthalen-1-yl)-8-fluoropyrido[4,3-d]pyrimidin-4-yl)-3-azabicyclo[3,2,1]octan-6-ol]	≤ 2 nM	≤ 2 nM	9190 nM	54 nM	2 nM	62 nM	140 nM	49 nM	5 nM	19 nM	–	–	–	–
CCc1cccc2cc(O)c(F)c(-c3ncc4c(N5CCC[C@@](C)(O)C5)nc(OC[C@@]56CCCN5C[C@H](F)C6)nc4c3F)c12 [Example 472, (3R)-1-(7-(8-ethyl-2-fluoro-3-hydroxynaphthalen-1-yl)-8-fluoro-2-(((2R,7aS)-2-fluorohexahydro-1H-pyrrolizin-7a-yl)methoxy)pyrido[4,3-d]pyrimidin-4-yl)-3-methylpiperidin-3-ol]	16 nM	18 nM	9300 nM	414 nM	80 nM	406 nM	1070 nM	89 nM	6 nM	231 nM	–	–	–	–
O=C1NC(=O)C2(CCCN(c3nc(OC[C@@]45CCCN4C[C@H](F)C5)nc4c(F)c(-c5cc(O)cc6ccc(F)c(F)c56)ncc34)C2)N1 (stereo partly drawn) [Example 444, 7-(7-(7,8-difluoro-3-hydroxynaphthalen-1-yl)-8-fluoro-2-(((2R,7aS)-2-fluorohexahydro-1H-pyrrolizin-7a-yl)methoxy)pyrido[4,3-d]pyrimidin-4-yl)-1,3,7-triazaspiro[4.5]decane-2,4-dione]	≤ 2 nM	≤ 2 nM	≥ 10000 nM	1560 nM	37 nM	1160 nM	1760 nM	1690 nM	5 nM	–	734 nM	1740 nM	656 nM	2440 nM
CCc1c(F)ccc2cc(O)cc(-c3ncc4c(N5CCCn6nc(C(=O)N(C)C)c(F)c6C5)nc(OC[C@@]56CCCN5C[C@H](F)C6)nc4c3F)c12 [Example 505, 5-(7-(8-ethyl-7-fluoro-3-hydroxynaphthalen-1-yl)-8-fluoro-2-(((2R,7aS)-2-fluorohexahydro-1H-pyrrolizin-7a-yl)methoxy)pyrido[4,3-d]pyrimidin-4-yl)-3-fluoro-N,N-dimethyl-5,6,7,8-tetrahydro-4H-pyrazolo[1,5-a][1,4]diazepine-2-carboxamide]	≤ 2 nM	≤ 2 nM	≥ 10000 nM	327 nM	31 nM	50 nM	–	14 nM	≤ 2 nM	16 nM	–	–	–	–
CCc1c(F)ccc2cc(O)cc(-c3ncc4c(N5CCCC6(CCC(F)(F)C6)C5)nc(OC[C@@]56CCCN5C[C@H](F)C6)nc4c3F)c12 (stereo partly drawn) [Example 509, 4-(4-(2,2-difluoro-7-azaspiro[4.5]decan-7-yl)-8-fluoro-2-(((2R,7aS)-2-fluorohexahydro-1H-pyrrolizin-7a-yl)methoxy)pyrido[4,3-d]pyrimidin-7-yl)-5-ethyl-6-fluoronaphthalen-2-ol]	6 nM	12 nM	6140 nM	206 nM	89 nM	338 nM	314 nM	144 nM	6 nM	–	211 nM	–	–	–

The next lines start with results.

IC50 [1]	IC50 [2]	IC50 [3]	IC50 [4]	IC50 [5]	IC50 [6]	IC50 [7]	IC50 [8]	IC50 [9]	IC50 [10]	IC50 [11]	SMILES	IC50 [12]	IC50 [13]	IC50 [14]
≤ 2 nM	≤ 2 nM	3990 nM	143 nM	12 nM	74 nM	563 nM	61 nM	≤ 2 nM	22 nM	–	C#Cc1c(F)ccc2cc(O)cc(-c3ncc4c(N5CCOCC(CO)C5)nc(OC[C@@]56CCCN5C[C@H](F)C6)nc4c3F)c12 (stereo partly drawn) [Example 391, 5-ethynyl-6-fluoro-4-(8-fluoro-2-(((2R,7aS)-2-fluorohexahydro-1H-pyrrolizin-7a-yl)methoxy)-4-(6-(hydroxymethyl)-1,4-oxazepan-4-yl)pyrido[4,3-d]pyrimidin-7-yl)naphthalen-2-ol]	–	–	–
≤ 2 nM	≤ 2 nM	7390 nM	166 nM	11 nM	113 nM	133 nM	99 nM	≤ 2 nM	57 nM	–	CCc1c(F)ccc2cc(O)cc(-c3ncc4c(N5CCCC(O)CC5)nc(OC[C@@]56CCCN5C[C@H](F)C6)nc4c3F)c12 (stereo in doubt) [Example 346, 1-(7-(8-ethyl-7-fluoro-3-hydroxynaphthalen-1-yl)-8-fluoro-2-(((2R,7aS)-2-fluorohexahydro-1H-pyrrolizin-7a-yl)methoxy)pyrido[4,3-d]pyrimidin-4-yl)azepan-4-ol]	–	–	–
≤ 2 nM	4 nM	3590 nM	99 nM	14 nM	148 nM	275 nM	36 nM	≤ 2 nM	35 nM	–	CCc1c(F)ccc2cc(O)cc(-c3ncc4c(N5CCCC6(CCSC6)C5)nc(OC[C@@]56CCCN5C[C@H](F)C6)nc4c3F)c12 (stereo partly drawn) [Example 476, 5-ethyl-6-fluoro-4-(8-fluoro-2-(((2R,7aS)-2-fluorotetrahydro-1H-pyrrolizin-7a(5H)-yl)methoxy)-4-(2-thia-7-azaspiro[4.5]decan-7-yl)pyrido[4,3-d]pyrimidin-7-yl)naphthalen-2-ol]	–	–	–
3 nM	8 nM	3480 nM	182 nM	14 nM	154 nM	319 nM	71 nM	3 nM	58 nM	–	CC1(O)COCCN(c2nc(OC[C@@]34CCCN3C[C@H](F)C4)nc3c(F)c(-c4cc(O)cc5ccc(F)c(Cl)c45)ncc23)C1 (stereo partly drawn) [Example 419, 4-(7-(8-chloro-7-fluoro-3-hydroxynaphthalen-1-yl)-8-fluoro-2-(((2R,7aS)-2-fluorohexahydro-1H-pyrrolizin-7a-yl)methoxy)pyrido[4,3-d]pyrimidin-4-yl)-6-methyl-1,4-oxazepan-6-ol]	–	–	–
–	–	8780 nM	82 nM	13 nM	138 nM	296 nM	83 nM	–	20 nM	–	CCc1c(F)ccc2cc(O)cc(-c3ncc4c(N5CCOCC(O)C5)nc(OC[C@@]56CCCN5C[C@H](F)C6)nc4c3F)c12 (stereo partly drawn) [Example 345, 4-(7-(8-ethyl-7-fluoro-3-hydroxynaphthalen-1-yl)-8-fluoro-2-(((2R,7aS)-2-fluorotetrahydro-1H-pyrrolizin-7a(5H)-yl)methoxy)pyrido[4,3-d]pyrimidin-4-yl)-1,4-oxazepan-6-ol]	–	–	–
≤ 2 nM	≤ 2 nM	4080 nM	639 nM	41 nM	165 nM	1510 nM	204 nM	4 nM	–	224 nM	O=C1CC2(CCCN(c3nc(OC[C@@]45CCCN4C[C@H](F)C5)nc4c(F)c(-c5cc(O)cc6ccc(F)c(F)c56)ncc34)C2)N1 (stereo partly drawn) [Example 452, 6-(7-(7,8-difluoro-3-hydroxynaphthalen-1-yl)-8-fluoro-2-(((2R,7aS)-2-fluorohexahydro-1H-pyrrolizin-7a-yl)methoxy)pyrido[4,3-d]pyrimidin-4-yl)-1,6-diazaspiro[3.5]nonan-2-one]	793 nM	154 nM	182 nM
